In this assay the target is T1, recombinant human SAE enzyme (Homo sapiens, UniProt Q9UBT2).
T1 sequence (Q9UBT2 1-640): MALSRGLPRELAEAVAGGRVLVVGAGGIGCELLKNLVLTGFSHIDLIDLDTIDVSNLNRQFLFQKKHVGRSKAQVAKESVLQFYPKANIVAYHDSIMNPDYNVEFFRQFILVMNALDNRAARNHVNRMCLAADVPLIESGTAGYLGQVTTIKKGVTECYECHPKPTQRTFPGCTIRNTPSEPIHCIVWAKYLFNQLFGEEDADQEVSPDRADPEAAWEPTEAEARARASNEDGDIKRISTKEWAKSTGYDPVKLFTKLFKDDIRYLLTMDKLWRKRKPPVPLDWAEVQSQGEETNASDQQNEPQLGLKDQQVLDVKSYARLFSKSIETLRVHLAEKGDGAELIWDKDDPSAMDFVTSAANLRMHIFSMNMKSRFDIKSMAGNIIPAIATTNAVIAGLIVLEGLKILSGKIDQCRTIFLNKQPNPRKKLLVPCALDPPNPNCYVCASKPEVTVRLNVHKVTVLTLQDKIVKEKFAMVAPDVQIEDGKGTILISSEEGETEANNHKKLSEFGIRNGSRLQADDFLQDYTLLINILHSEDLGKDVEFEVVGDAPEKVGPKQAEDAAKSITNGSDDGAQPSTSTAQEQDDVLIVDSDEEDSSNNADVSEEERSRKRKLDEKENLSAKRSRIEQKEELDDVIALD
T1 sequence (Q9UBE0 1-346 partner): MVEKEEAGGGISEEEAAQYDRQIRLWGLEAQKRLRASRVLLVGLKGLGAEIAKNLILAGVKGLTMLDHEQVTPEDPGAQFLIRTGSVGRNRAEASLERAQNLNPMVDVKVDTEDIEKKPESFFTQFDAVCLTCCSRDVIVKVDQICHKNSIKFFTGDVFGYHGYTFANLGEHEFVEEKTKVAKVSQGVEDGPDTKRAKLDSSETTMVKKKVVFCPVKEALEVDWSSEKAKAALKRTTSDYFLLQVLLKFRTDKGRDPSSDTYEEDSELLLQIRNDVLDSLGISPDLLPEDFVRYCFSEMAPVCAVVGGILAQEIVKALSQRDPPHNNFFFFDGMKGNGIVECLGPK
In words: SAE HTRF Enzyme Assay. Format: biochemical. The note with it: for IC50: class symbols A-C; for inhibition at 0.111 µM: compound concentration 0.111 μM, read-out: Percent Inhibition. An outline of the steps:
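SAE 0.11 nM; ATP 0.5 μM; Sumo-Flag 0.125 μM; Ubc9-GST 0.01 μM; 250 μM GSH, 5 mM MgCl2, pH 7.5. 105 min, 24° C. EDTA/KF stop plus Eu/APC antibodies, 2 h, TR-FRET. % inhibition or IC50.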
A general note: TR-FRET usually uses a lanthanide donor and a delayed reading to cut background.

Broadly, the IC50 is the concentration that inhibits the measured activity by half. What is called inhibition is the drop in the measured response relative to a control, in per cent.

Consider `Cc1cc(Cn2ccc(C(=O)c3cncnc3N[C@@H]3C[C@H](COS(N)(=O)=O)[C@@H](O)[C@@H]3F)c2)no1` [Compound I-297, [(1R,2R,3R,4R)-3-fluoro-2-hydroxy-4-{[5-({1-[(5-methylisoxazol-3-yl)methyl]-1H-pyrrol-3-yl}carbonyl)pyrimidin-4-yl]amino}cyclopentyl]methyl sulfamate], for which the IC50 was < 10 nM and the inhibition at 0.111 µM worked out at 97%.

For `NS(=O)(=O)OC[C@H]1C[C@@H](Nc2ncncc2C(=O)c2ccn(CC3CCCO3)n2)C[C@@H]1O` (mixture of isomers) [Compound I-293, [(1R,2S,4R)-2-hydroxy-4-{[5-({1-[(2R)-tetrahydrofuran-2-ylmethyl]-1H-pyrazol-3-yl}carbonyl)pyrimidin-4-yl]amino}cyclopentyl]methyl sulfamate and [(1R,2S,4R)-2-hydroxy-4-{[5-({1-[(2S)-tetrahydrofuran-2-ylmethyl]-1H-pyrazol-3-yl}carbonyl)pyrimidin-4-yl]amino}cyclopentyl]methyl sulfamate], the IC50 was 100 to 1000 nM and the inhibition at 0.111 µM is 38%.

For `N#Cc1ccccc1Cn1ccc(C(=O)c2cncnc2N[C@@H]2C[C@H](COS(N)(=O)=O)[C@@H](O)[C@H]2O)n1` [Compound I-249, {(1R,2R,3S,4R)-4-[(5-{[1-(2-cyanobenzyl)-1H-pyrazol-3-yl]carbonyl}pyrimidin-4-yl)amino]-2,3-dihydroxycyclopentyl}methyl sulfamate], the IC50 was < 10 nM and the inhibition at 0.111 µM was 97%.

Take `NS(=O)(=O)OC[C@H]1C[C@@H](Nc2ncncc2C(=O)c2ccn(Cc3cn4ccccc4n3)n2)C[C@@H]1O` [Compound I-214, {(1R,2S,4R)-2-hydroxy-4-[(5-{[1-(imidazo[1,2-a]pyridin-2-ylmethyl)-1H-pyrazol-3-yl]carbonyl}pyrimidin-4-yl)amino]cyclopentyl}methyl sulfamate]: the IC50 was < 10 nM and the inhibition at 0.111 µM stood at 98%.

Turning to `NS(=O)(=O)OC[C@H]1C[C@@H](Nc2ccncc2C(=O)c2ccn(Cc3ccc(Cl)c(Cl)c3)n2)C[C@@H]1O` [Compound I-78, {(1R,2S,4R)-4-[(3-{[1-(3,4-dichlorobenzyl)-1H-pyrazol-3-yl]carbonyl}pyridin-4-yl)amino]-2-hydroxycyclopentyl}methyl sulfamate], the IC50 was < 10 nM and the inhibition at 0.111 µM was 97%.

On to `NS(=O)(=O)OC[C@H]1C[C@@H](Nc2ncncc2C(=O)c2nn(Cc3ccccc3)cc2Cl)[C@H](O)[C@@H]1O` [Compound I-139, [(1R,2R,3S,4R)-4-({5-[(1-benzyl-4-chloro-1H-pyrazol-3-yl)carbonyl]pyrimidin-4-yl}amino)-2,3-dihydroxycyclopentyl]methyl sulfamate], for which the IC50 is < 10 nM and the inhibition at 0.111 µM was 86%.

As for `NS(=O)(=O)OC[C@H]1C[C@@H](Nc2ncncc2C(=O)c2cc(CO)n(Cc3cccc(Br)c3)n2)C[C@@H]1O` [Compound I-90, {(1R,2S,4R)-4-[(5-{[1-(3-Bromobenzyl)-5-(hydroxymethyl)-1H-pyrazol-3-yl]carbonyl}pyrimidin-4-yl)amino]-2-hydroxycyclopentyl}methyl sulfamate], the IC50 is < 10 nM and the inhibition at 0.111 µM came out at 98%.

With `NS(=O)(=O)OC[C@H]1C[C@@H](Nc2ncncc2C(=O)c2ccn(Cc3ccc(C(F)(F)F)o3)c2)C[C@@H]1O` [Compound I-274, [(1R,2S,4R)-2-hydroxy-4-({5-[(1-{[5-(trifluoromethyl)-2-furyl]methyl}-1H-pyrrol-3-yl)carbonyl]pyrimidin-4-yl}amino)cyclopentyl]methyl sulfamate], the IC50 was < 10 nM and the inhibition at 0.111 µM amounted to 97%.

As for `CC#CC(C)n1ccc(C(=O)c2cncnc2N[C@@H]2C[C@H](COS(N)(=O)=O)[C@@H](O)C2)n1` (single isomer, unassigned) [Compound I-362, {(1R,2S,4R)-2-hydroxy-4-[(5-{[(1S)-1-(pent-3-yn-2-yl)-1H-pyrazol-3-yl]carbonyl}pyrimidin-4-yl)amino]cyclopentyl}methyl sulfamate or {(1R,2S,4R)-2-hydroxy-4-[(5-{[(1R)-1-(pent-3-yn-2-yl)-1H-pyrazol-3-yl]carbonyl}pyrimidin-4-yl)amino]cyclopentyl}methyl sulfamate], the IC50 was 10 to 100 nM and the inhibition at 0.111 µM worked out at 52%.

For the molecule `NS(=O)(=O)OC[C@H]1C[C@@H](Nc2ncncc2C(=O)c2cc(Cl)n(Cc3ccc(F)c(Br)c3)c2)[C@@H](F)[C@@H]1O` [Compound I-320, {(1R,2R,3R,4R)-4-[(5-{[1-(3-bromo-4-fluorobenzyl)-5-chloro-1H-pyrrol-3-yl]carbonyl}pyrimidin-4-yl)amino]-3-fluoro-2-hydroxycyclopentyl}methyl sulfamate], the IC50 was < 10 nM and the inhibition at 0.111 µM came out at 98%.

For the molecule `CC(C)CC#CCn1ccc(C(=O)c2cncnc2N[C@@H]2C[C@H](COS(N)(=O)=O)[C@@H](O)C2)n1` [Compound I-153, {(1R,2S,4R)-2-hydroxy-4-[(5-{[1-(5-methylhex-2-yn-1-yl)-1H-pyrazol-3-yl]carbonyl}pyrimidin-4-yl)amino]cyclopentyl}methyl sulfamate], the IC50 was in the range of 10 to 100 nM and the inhibition at 0.111 µM was 82%.

With `COCC#CCn1ccc(C(=O)c2cncnc2N[C@@H]2C[C@H](COS(N)(=O)=O)[C@@H](O)[C@@H]2F)c1` [Compound I-236, {(1R,2R,3R,4R)-3-fluoro-2-hydroxy-4-[(5-{[1-(4-methoxybut-2-yn-1-yl)-1H-pyrrol-3-yl]carbonyl}pyrimidin-4-yl)amino]cyclopentyl}methyl sulfamate], the IC50 was 10 to 100 nM and the inhibition at 0.111 µM is 54%.

With `NS(=O)(=O)OC[C@H]1C[C@@H](Nc2ncncc2C(=O)c2ccn(Cc3cccc(Cl)c3)c2)[C@@H](F)[C@@H]1O` [Compound I-147, {(1R,2R,3R,4R)-4-[(5-{[1-(3-chlorobenzyl)-1H-pyrrol-3-yl]carbonyl}pyrimidin-4-yl)amino]-3-fluoro-2-hydroxycyclopentyl}methyl sulfamate], the IC50 is < 10 nM and the inhibition at 0.111 µM is > 99%.

For the molecule `NS(=O)(=O)OC[C@H]1C[C@@H](Nc2ncncc2C(=O)c2ccn(Cc3ccc(Cl)s3)c2)[C@@H](F)[C@@H]1O` [Compound I-189, [(1R,2R,3R,4R)-4-{[5-({1-[(5-chloro-2-thienyl)methyl]-1H-pyrrol-3-yl}carbonyl)pyrimidin-4-yl]amino}-3-fluoro-2-hydroxycyclopentyl]methyl sulfamate], the IC50 is < 10 nM and the inhibition at 0.111 µM amounted to 100%.

As to `NS(=O)(=O)OC[C@H]1C[C@@H](Nc2ncncc2C(=O)c2cc(C(F)(F)F)n(Cc3cccc(Cl)c3)n2)[C@@H](F)[C@@H]1O` [Compound I-316, {(1R,2R,3R,4R)-4-[(5-{[1-(3-Chlorobenzyl)-5-(trifluoromethyl)-1H-pyrazol-3-yl]carbonyl}pyrimidin-4-yl)amino]-3-fluoro-2-hydroxycyclopentyl}methyl sulfamate], the IC50 was < 10 nM and the inhibition at 0.111 µM worked out at 94%.

As for `Cc1cc(C(=O)c2cncnc2N[C@@H]2C[C@H](COS(N)(=O)=O)[C@@H](O)[C@H]2O)nn1Cc1ccc(C(F)(F)F)o1` [Compound I-138, [(1R,2R,3S,4R)-2,3-Dihydroxy-4-({5-[(5-methyl-1-{[5-(trifluoromethyl)-2-furyl]methyl}-1H-pyrazol-3-yl)carbonyl]pyrimidin-4-yl}amino)cyclopentyl]methyl sulfamate], the IC50 was < 10 nM and the inhibition at 0.111 µM turned out to be 99%.

For the molecule `COCc1ccc(Cn2ccc(C(=O)c3cncnc3N[C@@H]3C[C@H](COS(N)(=O)=O)[C@@H](O)[C@@H]3F)c2)o1` [Compound I-41, [(1R,2R,3R,4R)-3-fluoro-2-hydroxy-4-({5-[(1-{[5-(methoxymethyl)-2-furyl]methyl}-1H-pyrrol-3-yl)carbonyl]pyrimidin-4-yl}amino)cyclopentyl]methyl sulfamate], the IC50 is < 10 nM and the inhibition at 0.111 µM was determined as 94%.

As for `NS(=O)(=O)OC[C@H]1C[C@@H](Nc2ncncc2C(=O)c2ccn(Cc3ccc(F)c(Br)c3)n2)[C@@H](F)[C@@H]1O` [Compound I-92, {(1R,2R,3R,4R)-4-[(5-{[1-(3-bromo-4-fluorobenzyl)-1H-pyrazol-3-yl]carbonyl}pyrimidin-4-yl)amino]-3-fluoro-2-hydroxycyclopentyl}methyl sulfamate], the IC50 is < 10 nM and the inhibition at 0.111 µM worked out at 99%.

(Values after US9695154B2, “Heteroaryl inhibitors of sumo activating enzyme” (MILLENNIUM PHARMACEUTICALS, INC., priority 2013, dated 2017).)
